ChEMBL document CHEMBL1681742, “Novel second generation analogs of eribulin. Part I: Compounds containing a lipophilic C32 side chain overcome P-glycoprotein susceptibility” (Bioorg Med Chem Lett, 2011)
Activity calls are given as the source filed them. The calls are words filed in the database; no cut-off is given here.

Key:
LOX [1] = test: Antitumor activity against human LOX cells xenografted in athymic mouse assessed as inhibition of tumor growth at 0.1 mg/kg, iv qd administered 5 days a week for 2 weeks measured after 2 weeks; type: functional, organism-based; set-up: dose 0.1 mg/kg
Mus musculus [2] = test: Toxicity in athymic mouse xenografted with human LOX cells assessed as body weight loss at 0.1 mg/kg, iv qd administered 5 days a week for 2 weeks; type: organism-based; set-up: dose 0.1 mg/kg, route intravenous; details: in vivo
LOX [3] = test: Antitumor activity against human LOX cells xenografted in athymic mouse assessed as inhibition of tumor growth at 0.1 mg/kg, iv qd administered 5 days a week for 2 weeks measured up to 2 weeks; type: functional, organism-based; set-up: dose 0.1 mg/kg
[4] = Antiproliferative activity against P-gp overexpressing human MES-SA/Dx5-Rx1 cells assessed as growth inhibition; type: functional
HCT-15 = test: Antiproliferative activity against human HCT15 cells assessed as growth inhibition; type: functional, cell-based
[5] = Antiproliferative activity against human MES-SA cells assessed as growth inhibition; type: functional, cell-based
DLD-1 = test: Antiproliferative activity against human DLD1 cells assessed as growth inhibition; type: functional, cell-based
[6] = Fold resistance, ratio of IC50 for antiproliferative activity for P-gp overexpressing human MES-SA/Dx5-Rx1cells to IC50 for antiproliferative activity for human MES-SA cells
Mus musculus [7] = test: Toxicity in athymic mouse xenografted with human LOX cells assessed as reduction in water uptake at 0.1 mg/kg, iv qd administered 5 days a week for 2 weeks; type: organism-based; set-up: dose 0.1 mg/kg, route intravenous; details: in vivo
[8] = Cytotoxicity against human IMR90 cells up to 1 uM; type: cell-based; details: imr-90

SMILES | Activity (LOX [1]) | Activity (Mus musculus [2]) | Activity (LOX [3]) | IC50 [4] | IC50 (HCT-15) | IC50 [5] | IC50 (DLD-1) | Ratio IC50 [6] | Activity (Mus musculus [7]) | Activity [8]
C=C1C[C@@H]2CC[C@@]34C[C@H]5O[C@H]6[C@@H](O3)[C@H]3O[C@H](CC[C@@H]3O[C@H]6[C@H]5O4)CC(=O)C[C@@H]3[C@@H](OC)[C@@H](C[C@H](O)COC)O[C@H]3C[C@H]3O[C@@H](CC[C@@H]1O2)C[C@@H](C)C3=C | inactive | Non-toxic | Active | 2.82 nM | 0.2 nM | 0.17 nM | 0.27 nM | 17.09 | Non-toxic | Non-toxic
C=C1C[C@@H]2CC[C@@]34C[C@H]5O[C@H]6[C@@H](O3)[C@H]3O[C@H](CC[C@@H]3O[C@H]6[C@H]5O4)CC(=O)C[C@@H]3[C@@H](OC)[C@@H](C[C@H](O)CN)O[C@H]3C[C@H]3O[C@@H](CC[C@@H]1O2)C[C@@H](C)C3=C [ERIBULIN] |  |  | Active | 3060 nM | 204 nM | 1.66 nM | 20 nM | 1842 |  | Non-toxic
C=C1C[C@@H]2CC[C@@]34C[C@H]5O[C@H]6[C@@H](O3)[C@H]3O[C@H](CC[C@@H]3O[C@H]6[C@H]5O4)CC(=O)C[C@@H]3[C@@H](OC)[C@@H](C[C@@H](COC(C)=O)OC(C)=O)O[C@H]3C[C@H]3O[C@@H](CC[C@@H]1O2)C[C@@H](C)C3=C |  |  |  | 2.77 nM | 0.32 nM | 0.32 nM | 0.44 nM | 8.78 |  | Non-toxic
C=C1C[C@@H]2CC[C@@]34C[C@H]5O[C@H]6[C@@H](O3)[C@H]3O[C@H](CC[C@@H]3O[C@H]6[C@H]5O4)CC(=O)C[C@@H]3[C@@H](OC)[C@@H](CC(=O)O)O[C@H]3C[C@H]3O[C@@H](CC[C@@H]1O2)C[C@@H](C)C3=C |  |  |  | 95.5 nM | 18.3 nM | 12.4 nM | 17.6 nM | 7.72 |  | Non-toxic
C=CCO[C@H](CO)C[C@H]1O[C@H]2C[C@H]3O[C@@H](CC[C@@H]4O[C@@H](CC[C@@]56C[C@H]7O[C@H]8[C@@H](O5)[C@H]5O[C@H](CC[C@@H]5O[C@H]8[C@H]7O6)CC(=O)C[C@@H]2[C@H]1OC)CC4=C)C[C@@H](C)C3=C |  |  |  | 4.13 nM | 0.22 nM | 0.24 nM | 0.2 nM | 17.19 |  | Non-toxic
C=C1C[C@@H]2CC[C@@]34C[C@H]5O[C@H]6[C@@H](O3)[C@H]3O[C@H](CC[C@@H]3O[C@H]6[C@H]5O4)CC(=O)C[C@@H]3[C@@H](OC)[C@@H](C[C@@H](COC)OC)O[C@H]3C[C@H]3O[C@@H](CC[C@@H]1O2)C[C@@H](C)C3=C | inactive | Non-toxic | Active | 1.86 nM | 0.21 nM | 0.24 nM | 0.36 nM | 7.76 | Non-toxic | Non-toxic
